Experimental findings from patent EP0209274A2, “Furanone derivatives” (ELI LILLY AND COMPANY, priority 1985, dated 1987) are described below.

Each structure is given as a SMILES string.

In test [1] the target is Pancreatic phospholipase A2 (Homo sapiens, UniProt P04054). The test is described as follows: Phospholipase A2 (PLA2) Assay. Format: biochemical. The following applies: 30 µg/ml test compound; inhibition of 14C-free fatty acid formation. As for the experimental part: The assay buffer contained 10 mM Tris-HCl buffer, pH 8.0, 100 mM NaCl, 1 mM CaCl2 and 1 mg/ml of bovine serum albumin. A toluene-ethanol (1:1 v/v) solution of phosphatidiylcholine, L-a-dipalmitoyl-(2-palmitoyl-1-^14C) obtained from New England Nuclear was evaporated to dryness in a flask under nitrogen and the assay buffer was added to give a substrate concentration of 9.0 x 10^-5M (specific activity = 27.7 mCi/mmol). The mixture was sonicated for 5 minutes in a Bransonic 220 Sonication Bath. Pancreatic phospholipase A2 (specific activity = 600 units/mg) was diluted with the assay buffer to give an enzyme concentration of 0.1 mg/ml. […] To initiate the enzyme reaction, 0.1 ml of the mixture containing the substrate was added to the enzyme solution and the reaction mixture was further incubated for 30 minutes at 37°C. The reaction was then terminated by the addition of 20 µl of 1M citric acid.
Sequence of Pancreatic phospholipase A2 (P04054 23-148): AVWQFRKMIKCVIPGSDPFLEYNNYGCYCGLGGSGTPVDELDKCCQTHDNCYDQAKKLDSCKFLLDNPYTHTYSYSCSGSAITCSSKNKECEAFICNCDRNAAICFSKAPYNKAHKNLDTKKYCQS
Fifty µl of the mixture was added to 10 ml of scintillation fluid [5.88 g of 2,5-diphenyl-oxazole and 118 mg of 1,4-bis(5-phenyloxazol-2-yl)benzene] dissolved in 650 ml of toluene and 350 ml of Triton X-100) and the radioactivity was determined in an Isocap/300 liquid scintillation counter (Searle Analytic Inc., Southfield, Michigan). Another 50 µl of the mixture was applied directly onto the spotting area of a silica gel plate (LK6D, Whatman, Clifton, N.J.) and subjected to thin layer chromatography in a solvent system of ethyl acetate:acetic acid:2,2,4-trimethylpentane:H20 (90:20:50:100, v/v/v). The silica gel on the plate was scraped in 1 cm sections, suspended in 5 ml of the Triton X-100 based scintillation fluid and the radioactivity was determined. Phosphatidylcholine remained at the origin while fatty acids migrated to a few centimeters (2-3 cm) below the solvent front. The percent of ^14C-free fatty acid formed with the test compound added was calculated as compared to the amount formed in control experiments where no test compound was added. […]

Test [2] concerns the target T1, fatty acid cyclooxygenase (Homo sapiens, UniProt P23219).
T1 construct: Microsomes were prepared from 185 bags of human platelets; from tissue; host or cells: human platelets (solubilized microsomes, then electrofocusing and Sephadex G-200)
The test is described as follows: Fatty Acid Cyclooxygenase (FCO) Assay. It counts as biochemical. The following applies: 30 µg/ml test compound; inhibition of formation of PGE2; enzyme from human platelets. Here is the method: Microsomes were prepared from 185 bags of human platelets (each bag containing the platelets from one pint of blood prepared using differential centrifugation procedures). The platelets from approximately 60 bags were prepared at one time. Platelet-rich plasma (500 g) was centrifuged at 10,000 x g for 20 minutes, and the platelet pellet was suspended in 100 ml of 0.1M. potassium phosphate buffer, pH 8.0, with a Teflon glass homogenizer and sonicated for 5.0 minutes with a Bronson Sonifier (Model 350) in a rosette flask cooled in ice water. Disrupted platelets were centrifuged 15 minutes at 10,000 x g. The supernatant was centrifuged at 100,000 x g for 90 minutes and the microsomal pellets were homogenized in 25 ml of 20% sucrose containing 1.0% Triton X-100 detergent. After 30 minutes at 4°C, the solubilized microsomes were centrifuged at 100,000 x g for 60 minutes. The yellow supernatant was removed and stored at -70°C.
The solubilized fatty acid cyclooxygenase was applied to a 440 ml electrofocusing column (LKB-8012) containing 1% phisolytes (Brinkman Instruments, Westburgh, NY), pH 2-11, with the cathode at the top of the column. The enzyme was layered onto the column at the appropriate time so that its sucrose concentration was equal to that of the column gradient. This was accomplished by checking the gradient concentration periodically with a sucrose hand refractometer. Electrofocusing was carried out for 16 hours with an initial voltage of 400 V and a final voltage of 900-1,000 volts. Fractions were collected (20 ml) and assayed for PGE2 formation. Active peak fractions were pooled and concentrated by ultrafiltration (XM 100A) to a volume of 3-5 ml.
Active fractions from electrofocusing were applied to a G-200 Sephadex column (2 cm x 46 cm) and eluted with 10 mM potassium phosphate buffer, pH 7.0, in 5 ml fractions. After assay, active fractions were pooled and concentrated to 1.0 ml by ultrafiltration (XM 100A), and kept frozen at -70°C.
Enzyme activity was determined by assaying for PGE2 formation by preincubating the enzyme with 10 mmol/l imidazole phosphate buffer, pH 8.0, 2 mmol/l epinephrine, 2 mmol/1 methemoglobin, and the test compound (30 pg/ml) in a total volume of 0.2 ml for one minute at 37°C. After preincubation, 5 mmol/1 ^14C-arachidonic acid were added and the mixture was incubated an additional 0.5 minutes at 37°C. The enzyme reaction was stopped by the addition of 20 µl of indomethacin (2 mg/ml) in alcohol.
The reaction mixture was spotted (50 pl) on a silica gel (LQ6D) plate and subjected to TLC. The solvent system consisted of chloroform-methanol-glacial acetic acid (90:5:5, v/v/v) and the relative mobilities were PGF2a = 0.235, and PGE2 = 0.47. The silica gel on the plate was scraped in 1 cm sections, suspended in 5 ml of the scintillation fluid [5.88 g of 2,5-diphenyl-oxazole and 118 mg of 1,4-bis(5-phenyloxazol-2-yl)benzene] dissolved in 650 ml of toluene and 350 ml of Triton X-100) and the radioactivity was determined in an Isocap/300 liquid scintillation counter (Searle Analytic, Inc., Southfield, MI). Another 50 µl of the mixture was added to 10 ml of the Triton X-100 based scintillation fluid, and the radioactivity was determined so that the amount of radioactivity recovery from the TLC plate could be ascertained. PGE2 formation for each test compound was determined as a percent of control experiments wherein no test compound was added. Data is expressed in Table I as the percent inhibition of formation of PGE2 at a test compound concentration of 30 pg/ml.

A further test addresses T2, 5-Lipoxygenase (Cavia porcellus, UniProt A0A286X958).
T2 construct: The PMNL suspension was disrupted by five ½-second pulse sonication; from tissue; host or cells: guinea pig peritoneal polymorphonuclear leukocytes (30,000 x g supernatant of the sonicate)
T2 sequence (A0A286X958 1-674): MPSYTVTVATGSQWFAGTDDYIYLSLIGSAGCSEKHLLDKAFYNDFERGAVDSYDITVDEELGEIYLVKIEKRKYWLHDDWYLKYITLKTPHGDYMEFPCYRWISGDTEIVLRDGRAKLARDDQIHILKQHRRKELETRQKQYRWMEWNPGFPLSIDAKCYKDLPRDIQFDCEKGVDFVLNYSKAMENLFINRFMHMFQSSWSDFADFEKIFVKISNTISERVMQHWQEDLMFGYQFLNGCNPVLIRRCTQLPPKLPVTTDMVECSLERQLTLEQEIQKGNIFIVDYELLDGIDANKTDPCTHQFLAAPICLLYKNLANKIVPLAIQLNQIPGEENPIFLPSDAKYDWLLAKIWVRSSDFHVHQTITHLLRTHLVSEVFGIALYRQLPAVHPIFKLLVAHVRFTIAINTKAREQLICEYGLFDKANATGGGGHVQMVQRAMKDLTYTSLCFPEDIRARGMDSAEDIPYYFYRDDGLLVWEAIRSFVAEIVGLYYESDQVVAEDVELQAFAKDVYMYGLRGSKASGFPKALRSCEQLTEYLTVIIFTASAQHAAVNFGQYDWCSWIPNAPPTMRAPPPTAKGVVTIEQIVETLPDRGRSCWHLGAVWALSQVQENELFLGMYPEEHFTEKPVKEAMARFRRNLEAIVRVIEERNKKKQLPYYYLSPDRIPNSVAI
In words: 5-Lipoxygenase (5-LPO) Assay. Format: biochemical, guinea pigs. The following applies: inhibition of 5-HETE formation; supernatant of guinea pig PMNL sonicate; read-out: 5-LPO IC50 (µg/ml) (converted). As for the experimental part: Ten milliliters of a 2% casein solution were injected intraperitoneally to guinea pigs weighing 250-300 gm. After 16-18 hours, the guinea pigs were killed by suffocation in a carbon dioxide chamber. The peritoneal cavity was infused with 70 ml of saline and 40-50 ml of the fluid were recovered from the cavity. After centrifugation, cell pellets were washed twice in Hank's balanced salt solution (HBSS) without calcium ion.
The cells were then suspended in 5 ml of sodium phosphate buffer, pH 7.1 containing 1 mM EDTA, and 0.1% gelatin. About 20-30 x 10^7 cells were obtained from one guinea pig.
The PMNL suspension was disrupted by five ½-second pulse sonication at the setting of 3 in a Branson Sonifier, Model 350, equipped with a microtip. The sonicates were combined and centrifuged at 30,000 x g for 10 minutes. The supernatant was kept frozen at -70°C until use.
. Enzyme activity was determined by assaying for 5-HETE formatiun by first incubating 0.2 ml of the supernatant obtained from the PMNL sonicate with the test compound, 1 mM CaCl2, 2 mM ATP, and 1 mM GSH for 5 minutes at 37°C. The mixture is treated with 5 pM ^14C-arachidonic acid and incubated at 37°C an additional 10 minutes. The enzyme reaction was then stopped by the addition of 10 µl of 1M citric acid and 10 µl of an alcohol solution containing 20 mg/ml each of indomethacin and butylated hydroxyanisole (BHA). The reaction mixture was spotted (50 µl) on a silica gel plate (Baker TLC plate S1250-PA-19C) and subjected to TLC in a solvent system of ethyl acetate/2,2,4-tri- methylpentane/glacial acetic acid/H20 (90:50:20:100).
The radioactivity of the arachidonic acid and its metabolites (5-HETE and LTB4) was visualized from a developed x-ray film which had been exposed to the TLC plate 1-2 days. The amount of 5-HETE formed was quanti- tated by scraping the silica gel area corresponding to the spot on the x-ray film, and the radioactivity determined in a Isocap/300 liquid scintillation counter (Searle Analytic, Inc.).
The percent inhibition of the formation of 5-HETE was determined for each concentration of test compound tested as compared to a control experiment wherein no test compound was added. The concentration and percent inhibition values were plotted on semi log paper and the concentration in which formation of 5-HETE is inhibited by 50% (ICso) was determined by interpolation.

T1 sequence (P23219 24-599): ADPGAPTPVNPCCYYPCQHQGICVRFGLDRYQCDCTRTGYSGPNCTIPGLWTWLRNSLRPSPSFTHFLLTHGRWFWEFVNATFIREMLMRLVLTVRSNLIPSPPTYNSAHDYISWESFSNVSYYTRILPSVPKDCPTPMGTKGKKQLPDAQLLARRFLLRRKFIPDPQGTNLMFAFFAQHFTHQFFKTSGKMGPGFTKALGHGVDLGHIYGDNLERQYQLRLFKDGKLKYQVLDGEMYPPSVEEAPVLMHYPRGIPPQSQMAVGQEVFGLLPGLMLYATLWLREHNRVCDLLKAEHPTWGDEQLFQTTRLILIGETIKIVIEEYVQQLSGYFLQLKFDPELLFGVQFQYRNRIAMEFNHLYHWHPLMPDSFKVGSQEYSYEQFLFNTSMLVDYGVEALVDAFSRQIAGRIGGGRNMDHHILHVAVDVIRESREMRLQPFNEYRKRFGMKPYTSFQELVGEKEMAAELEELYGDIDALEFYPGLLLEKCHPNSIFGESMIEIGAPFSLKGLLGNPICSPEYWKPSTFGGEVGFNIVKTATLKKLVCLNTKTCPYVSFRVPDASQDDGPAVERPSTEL

For the molecule `CCCCCCCC/C=C\CCCCCCCCCCC1=CC(=O)OC1O` (stereo not drawn) [Example 10, (Z)-4-(11-eicosenyl)-5-hydroxy-2(5H)-furanone], the results for the inhibition at 30 µg/mL in test [1] and in test [2] were 26% and 25%, respectively.

Regarding `CCCCCC/C=C\CCCCCCCCC1=CC(=O)OC1O` (stereo not drawn) [Example 8, (Z)-4-(9-hexadecenyl)-5-hydroxy-2(5H)-furanone], the values for the inhibition at 30 µg/mL in test [1] and in test [2] were 36% and 21%, respectively.

In the case of `C=CCCCCCCCC1=CC(=O)OC1O` (stereo not drawn) [Example 7, 5-Hydroxy-4-(8-nonenyl)-2(5H)-furanone], the results for the inhibition at 30 µg/mL in test [1] and in test [2] were 0% and 23%, respectively.

With `O=C1C=C(CCCCCOc2ccc3ccccc3c2)C(O)O1` (stereo not drawn) [Example 16, 5-Hydroxy-4-[5-(2-naphthalenyloxy)pentyl]-2(5H)-furanone], the IC50 at 5-Lipoxygenase is 9.6 µM. Also, at 30 µg/mL the inhibition in test [2] was 27%.

In the case of `O=C1C=C(CCCCOc2ccccc2Cc2ccccc2)C(O)O1` (stereo not drawn) [Example 17, 5-Hydroxy-4-[4-(2-benzylphenoxy)butyl]-2(5H)-furanone], at 5-Lipoxygenase, the IC50 is 8.87 µM. For the same molecule, the inhibition (as a rule, the drop in the measured response relative to a control, in per cent) at 30 µg/mL in test [2] was 12%.

As to `CCCC/C=C\CCCCCCCCCCC1=CC(=O)OC1O` (stereo not drawn) [Example 21, (Z)-4-(11-hexadecenyl)-5-hydroxy-2(5H)-furanone], the IC50 at 5-Lipoxygenase is 93 µM. The same molecule gave an inhibition at 30 µg/mL in test [1] of 0%.
